This note sets out measurements from US12161642B2, “Ferrochelatase inhibitors and methods of use” (INDIANA UNIVERSITY RESEARCH AND TECHNOLOGY CORPORATION, priority 2018, dated 2024).

One assay has as its system FECH in HRECs. As to the kind of experiment: PPIX accumulation assay in HRECs. It counts as cell-based, human. The note with it: after 5-ALA treatment; vs. DMSO control. As to the method:
To confirm that ferrochelatase is inhibited in HRECs after treatment with compounds, the buildup of FECH's substrate PPIX was assayed fluorometrically. HRECs were plated for 80% confluency at the time of treatment in 6 cm dishes coated with attachment factor. Cells were then treated with compound in DMSO (1% DMSO final concentration) for 2 hours at 37° C. 5-Aminolevulinic acid, the first dedicated precursor in the heme synthesis pathway, was then added to the cells at 1 mM and allowed to incubate at 37° C. for another 2 hours. Cells were washed with PBS and flash frozen. Cells were lysed in 200 μL RIPA buffer and cleared by centrifugation at 14,000 g for 15 minutes at 4° C. The cleared lysates (20 μL) were added to wells of a 384 well plate in triplicate. An equal volume of 2M HC104 prepared in methanol was added to each well and PPIX was detected by immediately reading fluorescence on a Biotek Synergy H1 plate reader at 406 nm excitation and 610 nm emission. Total PPIX accumulation was determined by comparing fluorescence output with PPIX standards, prepared in DMSO and diluted in RIPA buffer and 2M HC104 (1:1 ratio) and read on the same plate. Protein in the cleared lysates was quantified with a standard Bradford assay and the amount of PPIX accumulation is expressed per mg protein.

Assay [1] relates to HRECs. As to the kind of experiment: HREC proliferation assay (alamarBlue), GI50 determination. The assay is classed as cell-based, human. The settings on record: proliferation of HRECs. As to the method:
Human retinal microvascular endothelial cells (HRECs) were cultured in EGM-2 medium (Lonza). Cells (2500/well) in EGM-2 medium were plated in 48 wells in the center of a 96-well black with clear bottom TC treated plate are allowed to attach overnight. The cells were treated with compounds such that final assay concentrations were 100 μM, 30 μM, 10 μM, 3 μM, 1 μM, 100 nM, and 10 nM with DMSO control (1% final DMSO concentration). Cells were allowed to proliferate for 44 hours prior to addition of alamarBlue. The alamarBlue reagent is a flurorometric/colorimetric redox reagent that is reduced in the presence of growing cells. The assay was completed with a read of fluorescence at excitation of 560 nm and emission of 590 nm. GI50 values were determined using GraphPad Prism software.

Assay [2] relates to HRECs. As to the kind of experiment: Matrigel-based tube formation assay. It counts as cell-based, human. The settings on record: 8 hours, total tubule length vs. DMSO control. Here is the method:
The Matrigel-based tube formation assay was performed. Briefly, 50 μL Matrigel was allowed to solidify in a 96-well black, clear bottom plate at 37° C. for 20 minutes. HRECs were added to the solid Matrigel at 15,000 cells/well in 100 μL EGM-2 and dosed with appropriate concentrations of compound in DMSO, 1 μL/well. Tube formation was observed every 2 hours by brightfield microscopy and images were taken after 8 hours of tube formation. Six images per treatment were analyzed using the AngiogenesisAnalyzer plugin for ImageJ and HREC total tubule length for treated cells was normalized to DMSO controls. Statistical analysis was completed using GraphPad Prism, with ANOVA followed by Dunnett's post hoc tests used to compare treatments to control (DMSO).

Another assay has as its target recombinant human FECH (Homo sapiens (Human), UniProt P22830). As to the kind of experiment: FECH enzymatic activity assay (Ni2+ mesoporphyrin IX formation, absorbance at 550 nm). The assay is classed as biochemical. As to the method:
The human FECH expression plasmid pHDTF20 was obtained in E. coli cells from the Dailey Lab (University of Georgia). The cells were grown in Circlegrow medium (MP Biomedicals, LLC #3000-122) with ampicillin for 20 hours. Cells were harvested, lysed in a Tris-MOPS buffer and purified by immobilized metal affinity chromatography using HisPur Cobalt resin (Thermo Fisher #89965).
The activity assay buffer was 100 mM Tris-HCl pH 8.0 with 0.05% octyl glucoside detergent. Assay reagents included 100 μM NiCl (Sigma #339350), 0.75 μM FECH enzyme and 100 μM mesoporphyrin (Sigma #258806) prepared in ammonium hydroxide (Santa Cruz #sc-214535).
The kinetic assay was optimized for a 384-well format. For the 384-well assay, each well contained a 50 μL reaction with 40 μL buffer, 5 μL mesoporphyrin solution, 5 μL NiCl and FECH solution. […] This time point was used for the chemical screen.
A mixture of assay buffer, NiCl and FECH enzyme (15 μL) was added to all wells on the assay plate using a MulitFlo dispenser. To start the reaction, 15 μL of a 333 μM mesoporphyrin solution in assay buffer was added to the plate, the plate spun down and the absorbance at OD=550 nm immediately read to establish a read at time 0. Plates were read for absorbance at OD=550 nm again at t=20 minutes and the activity was expressed as the change in the absorbance over the 20 minute reaction.
Compounds, reordered from ChemDiv or synthesized as described above, were made to 10 mM in DMSO and tested in the FECH enzymatic assay at final concentrations of […] 100 μM (1% final DMSO concentration). IC50 values for the compounds were determined using GraphPad Prism software.
A kinetic assay to monitor FECH enzymatic activity was adapted from a published protocol (Burden et a., Biochim Biophys Acta 1435, 191-197 (1999)).

Setting [3] is: recombinant FECH, read-out: FECH IC50.

Read-outs that look alike come from different tables or passages of the source. A value given as a limit tells only on which side of the number the result lay.

recombinant human FECH, sequence (P22830 55-423): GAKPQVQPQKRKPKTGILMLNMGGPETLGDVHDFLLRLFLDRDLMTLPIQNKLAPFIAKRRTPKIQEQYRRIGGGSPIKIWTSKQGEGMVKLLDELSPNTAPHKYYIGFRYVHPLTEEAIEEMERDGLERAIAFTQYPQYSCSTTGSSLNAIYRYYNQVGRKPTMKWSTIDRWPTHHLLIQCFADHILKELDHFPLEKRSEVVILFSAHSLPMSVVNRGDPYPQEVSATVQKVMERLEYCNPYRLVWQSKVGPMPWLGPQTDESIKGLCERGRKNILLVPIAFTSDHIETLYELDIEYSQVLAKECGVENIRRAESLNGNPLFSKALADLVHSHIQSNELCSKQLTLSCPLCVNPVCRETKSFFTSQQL

A word on the GI50: it is the concentration at which growth is held to half of that of the control. The IC50 is the concentration that inhibits the measured activity by half. `CC(C)(C)c1ccc(-c2nc3[nH]c(CNc4ccc5ccccc5n4)cc(=O)n3n2)cc1` [Example 4e, 2-(4-(tert-butyl)phenyl)-5-((quinolin-2-ylamino)methyl)-[1,2,4]triazolo[1,5-a]pyrimidin-7(4H)-one]: the “buildup of PPIX in HRECs” value in the assay on FECH in HRECs is “induced a buildup of PPIX”. The compound also yielded a GI50 in the assay with HRECs [1] (Homo sapiens, HREC, 44 h) of 92.5 µM. Also, the “tube formation of HRECs” value with HRECs [2] is listed as “blocked tube formation”. Moreover, the IC50 on recombinant human FECH (setting [3]) was 0.178 µM.
Take `CC(C)(C)c1ccc(-c2nc3[nH]c(CNc4cccc(Cl)c4)cc(=O)n3n2)cc1` [Example 4h, 2-(4-(tert-butyl)phenyl)-5-(((3-chlorophenyl)amino)methyl)-[1,2,4]triazolo[1,5-a]pyrimidin-7(4H)-one]: the GI50 in the assay with HRECs [1] (Homo sapiens, HREC, 44 h) was more than 100 µM. In addition, in the assay on HRECs [2], the “tube formation of HRECs” value is recorded as “blocked tube formation”.
Take `CCCc1cc(=O)n2nc(CNc3ccccc3C)nc2[nH]1` [Example 5a, 5-propyl-2-((o-tolylamino)methyl)-[1,2,4]triazolo[1,5-a]pyrimidin-7(4H)-one]: the concentration for 50% growth inhibition (GI50) with HRECs [1] (Homo sapiens, HREC, 44 h) is 75.5 µM. Further, in the assay on HRECs [2], the “tube formation of HRECs” value was “blocked tube formation”. Also, the IC50 at recombinant human FECH (setting [3]) was found to be 92 µM.
Regarding `CCCc1cc(=O)n2nc(CNc3ccc(C)cc3)nc2[nH]1` [Example 5c, 5-propyl-2-((p-tolylamino)methyl)-[1,2,4]triazolo[1,5-a]pyrimidin-7(4H)-one], the GI50 in the assay on HRECs [1] (Homo sapiens, HREC, 44 h) is 28.3 µM. Moreover, the “tube formation of HRECs” value in the assay with HRECs [2] is “blocked tube formation”. Also, at recombinant human FECH (setting [3]), the IC50 was found to be 0.293 µM.
With `CCCc1cc(=O)n2nc(CNc3ccccc3Cl)nc2[nH]1` [Example 5d, 2-(((2-chlorophenyl)amino)methyl)-5-propyl-[1,2,4]triazolo[1,5-a]pyrimidin-7(4H)-one], halving of growth in the assay with HRECs [1] (Homo sapiens, HREC, 44 h) (GI50) required 25.7 µM. For the same compound, the “tube formation of HRECs” value in the assay on HRECs [2] was “blocked tube formation”. In addition, the IC50 on recombinant human FECH (setting [3]) was more than 100 µM.
In turn, `CCCc1cc(=O)n2nc(CNc3ccc(C(C)(C)C)cc3)nc2[nH]1` [Example 5h, 2-(((4-(tert-butyl)phenyl)amino)methyl)-5-propyl-[1,2,4]triazolo[1,5-a]pyrimidin-7(4H)-one] registered a GI50 in the assay on HRECs [1] (Homo sapiens, HREC, 44 h) of 3.8 µM. Moreover, the “tube formation of HRECs” value in the assay with HRECs [2] was “blocked tube formation”. Also, the IC50 on recombinant human FECH (setting [3]) was more than 100 µM.
The compound `Cc1ccc(NCc2nc3[nH]c(C)cc(=O)n3n2)cc1` [Example 5w, 5-methyl-2-((p-tolylamino)methyl)-[1,2,4]triazolo[1,5-a]pyrimidin-7(4H)-one] came in with a GI50 with HRECs [1] (Homo sapiens, HREC, 44 h) of more than 100 µM. In addition, at recombinant human FECH (setting [3]), the IC50 is 22.5 µM.
Taken in the same sequence, the figures for `COc1ccc(Cl)cc1NCc1cc(=O)n2nc(-c3ccc(C(C)(C)C)cc3)nc2[nH]1` [Example D351-0303] were 21.7 µM and 0.808 µM.
The matching figures for `Cc1ccc(Cl)cc1NCc1cc(=O)n2nc(-c3ccc(C(C)(C)C)cc3)nc2[nH]1` [Example D351-0310]: 42.3 µM and 0.0981 µM.
Taken in the same sequence, the figures for `Cc1cccc(C)c1NCc1cc(=O)n2nc(-c3ccc(C(C)(C)C)cc3)nc2[nH]1` [Example D351-0312] were more than 100 µM and 1.39 µM.
Turning to `Cc1ccc(Cl)cc1NCc1cc(=O)n2nc(-c3ccccc3C)nc2[nH]1` [Example D351-0414], in the assay on HRECs [1] (Homo sapiens, HREC, 44 h), the GI50 is more than 100 µM. The IC50 on recombinant human FECH (setting [3]) is 0.346 µM.
The matching figures for `COc1ccc(NCc2nc3[nH]c(C)c(Cc4ccc(Cl)cc4)c(=O)n3n2)cc1` [Example D433-1582]: more than 100 µM and 0.0614 µM.
The matching figures for `CCc1ccccc1NCc1nc2[nH]c(C)c(Cc3ccc(Cl)cc3)c(=O)n2n1` [Example D433-1585]: 74.6 µM and 1.25 µM.
Taken in the same sequence, the figures for `CCOC(=O)CCc1c(C)[nH]c2nc(CNc3ccc(C)c(Cl)c3)nn2c1=O` [Example D433-1688] were more than 100 µM and 2.99 µM.
`CCCc1cc(=O)n2nc(CNc3cccc(C(F)(F)F)c3)nc2[nH]1` [Example D433-1725]: it took 1.17 µM to inhibit growth in the assay on HRECs [1] (Homo sapiens, HREC, 44 h) by half (GI50). For the same compound, the IC50 at recombinant human FECH (setting [3]) came to 4.39 µM.
Regarding `CCCc1cc(=O)n2nc(CNc3ccc(Cl)cc3)nc2[nH]1` [Example D433-1739], in the assay with HRECs [1] (44 hours), growth was halved (GI50) at 3.14 µM. Moreover, the IC50 on recombinant human FECH (setting [3]) is 0.829 µM.
In the assay with HRECs [1] (Homo sapiens, HREC, 44 h), `CCCc1cc(=O)n2nc(CNc3cccc(OC)c3)nc2[nH]1` [Example D433-1741] yielded a GI50 of 1.61 µM. On recombinant human FECH (setting [3]), the IC50 stood at 2.86 µM.
Taken in the same sequence, the figures for `CCCc1cc(=O)n2nc(CNc3ccc(C)c(Cl)c3)nc2[nH]1` [Example D433-1748] were more than 100 µM and 0.57 µM.
Take `CCCc1cc(=O)n2nc(CNc3cccc(Cl)c3C)nc2[nH]1` [Example D433-1750]: the GI50 in the assay with HRECs [1] (Homo sapiens, HREC, 44 h) was more than 100 µM. In addition, on recombinant human FECH (setting [3]), the IC50 was 2.15 µM.
The matching figures for `Cc1ccc(NCc2nc3[nH]c(C(C)C)cc(=O)n3n2)cc1Cl` [Example D433-1798]: more than 100 µM and 1.02 µM.
The matching figures for `O=c1c2c([nH]c3nc(CNc4cccc(Cl)c4)nn13)CCC2` [Example D433-1831]: more than 100 µM and 1.57 µM.
Taken in the same sequence, the figures for `O=c1c2c([nH]c3nc(CNc4ccc(Cl)cc4)nn13)CCC2` [Example D433-1839] were 81.5 µM and 1.05 µM.
In the assay with HRECs [1] (Homo sapiens, HREC, 44 h), `COc1cccc(NCc2nc3[nH]c4c(c(=O)n3n2)CCC4)c1` [Example D433-1841] displayed a GI50 of more than 100 µM. In addition, the IC50 on recombinant human FECH (setting [3]) was found to be 3.75 µM.
In the assay on HRECs [1] (Homo sapiens, HREC, 44 h), `Cc1ccc(NCc2nc3[nH]c4c(c(=O)n3n2)CCC4)cc1Cl` [Example D433-1848] gave a GI50 of more than 100 µM. Also, the IC50 at recombinant human FECH (setting [3]) came out at 0.227 µM.
With “N-methylprotoporphyrin [NMPP, reference compound]”, the “buildup of PPIX in HRECs” value in the assay with FECH in HRECs is listed as “induced a buildup of PPIX”. Moreover, the FECH activity inhibition entry on recombinant human FECH (10 μM) is on record as “completely inhibited”. For the same compound, the IC50 at recombinant human FECH (positive control, in our assay, read-out: IC50 (FECH inhibition)) stood at 0.45 µM.
